Results from paper PMC8042910, “Adiponectin-mimetic novel nonapeptide rescues aberrant neuronal metabolic-associated memory deficits in Alzheimer’s disease” (Molecular Neurodegeneration, 2021).

Tested on: p-IRS-1 and p-PI3K/Akt/GSK3β (Ser 9) pathways
Experiment: Insulin resistance and downstream insulin signaling in APPswe/ind-overexpressing SH-SY5Y cells, immunoblot
Assay type: cell-based, human
Conditions: APPswe/ind SH-SY5YIR, Comp. C 10 μM with Os-pep 10 μM
Protocol: Human neuroblastoma SH-SY5Y cells were seeded (in 6-well culture plates for immunoblotting and in chamber slides for immunofluorescence) in DMEM (Dulbecco’s modified Eagle medium) containing 10% fetal bovine serum (FBS) and 1% antibiotics (penicillin-streptomycin) and incubated at 37 °C in humidified air containing 5% CO2. Once the cells reached 70–80% confluence, the cells were transfected using the pCAX vector containing the APPswe/ind gene using Lipofectamine 3000 (Life Technologies) according to the provider’s protocols. AdipoR1 siRNA (h) (SC-60123) and AMPK siRNA (h) (SC-45312) (Santa Cruz Biotechnology, Inc.) were used at a concentration of 10 μM per transfection and expressed for 72 h according to the manufacturer’s protocol (Santa Cruz Biotechnology, Inc.). A negative siRNA (Ambion, Thermo Fisher Scientific) was used as a control. Seventy-two hours after the transfections, the cells were exposed to Os-pep (10 μM) for 12 h and then subjected to immunoblotting and immunofluorescence analyses.
Human neuroblastoma SH-SY5Y cells were treated with 1 µM of insulin for 48 h to produce intrinsic insulin-resistant human neuroblastoma (SH-SY5YIR) cells. After 48 h, SH-SY5YIR cells were overexpressed with human APPswe/ind and subjected with AdipoR1 siRNA which further exposed to 10 nM insulin, Os-pep (10 µM) or compound C (10 µM) for 12 h, and then cell lysates were collected and proceeded accordingly for immunoblotting and ELISA.

SMILES: c1cc(-c2cnn3cc(-c4ccc(OCCN5CCCCC5)cc4)cnc23)ccn1 [Comp. C, reference compound]
- effect on insulin-sensitizing effect of Os-pep: inhibited the insulin-sensitizing effect of Os-pep
